# According to article PMC11003488 (Journal of Enzyme Inhibition and Medicinal Chemistry, 2023):
# Like-named read-outs stand apart in the source and are kept apart here.
# Key:
# [1] = test system: MALME-3M; assay: NCI-60 SRB growth inhibition, one-dose and five-dose; type: cell-based; settings: Homo sapiens
# [2] = test system: NCI-H23; assay: as above; type: cell-based; settings: Homo sapiens
# [3] = test system: MCF7; assay: as above; type: cell-based; settings: Homo sapiens
# [4] = test system: NCI-H226; assay: as above; type: cell-based; settings: Homo sapiens
# [5] = test system: M14; assay: as above; type: cell-based; settings: Homo sapiens
# [6] = test system: NCI-H460; assay: as above; type: cell-based; settings: Homo sapiens
# [7] = test system: HS 578 T; assay: as above; type: cell-based; settings: Homo sapiens
# [8] = test system: A498; assay: as above; type: cell-based; settings: Homo sapiens
# [9] = test system: PC-3; assay: as above; type: cell-based; settings: Homo sapiens
# [10] = test system: HCT-15; assay: as above; type: cell-based; settings: Homo sapiens
# [11] = test system: OVCAR-4; assay: as above; type: cell-based; settings: Homo sapiens
# [12] = test system: HCC-2998; assay: as above; type: cell-based; settings: Homo sapiens
# [13] = test system: HOP-62; assay: as above; type: cell-based; settings: Homo sapiens
# [14] = test system: NCI 60-cell line panel (full panel); assay: NCI-60 SRB growth inhibition, full panel mean / MG-MID; type: cell-based, human; settings: for GI50: Homo sapiens, 60 cell
# [15] = test system: IGROV1; assay: NCI-60 SRB growth inhibition, one-dose and five-dose; type: cell-based; settings: Homo sapiens
# [16] = test system: COLO 205; assay: as above; type: cell-based; settings: Homo sapiens
# [17] = test system: OVCAR-3; assay: as above; type: cell-based; settings: Homo sapiens
# [18] = test system: SNB-75; assay: as above; type: cell-based; settings: Homo sapiens
# [19] = test system: UACC-62; assay: as above; type: cell-based; settings: Homo sapiens
# [20] = test system: HT29; assay: as above; type: cell-based; settings: Homo sapiens
# [21] = test system: LOX IMVI; assay: as above; type: cell-based; settings: Homo sapiens
# [22] = test system: SK-MEL-28; assay: as above; type: cell-based; settings: Homo sapiens
# [23] = test system: ACHN; assay: as above; type: cell-based; settings: Homo sapiens
# [24] = test system: T-47D; assay: as above; type: cell-based; settings: Homo sapiens, T47D
# [25] = test system: SK-MEL-5; assay: as above; type: cell-based; settings: Homo sapiens
# [26] = test system: EKVX; assay: as above; type: cell-based; settings: Homo sapiens
# [27] = test system: NCI/ADR-RES; assay: as above; type: cell-based; settings: Homo sapiens
# [28] = test system: 786-0; assay: as above; type: cell-based; settings: Homo sapiens
# [29] = test system: SF-268; assay: as above; type: cell-based; settings: Homo sapiens
# [30] = test system: NCI-H522; assay: as above; type: cell-based; settings: Homo sapiens
# [31] = test system: TK-10; assay: as above; type: cell-based; settings: Homo sapiens
# [32] = test system: HCT-116; assay: as above; type: cell-based; settings: Homo sapiens
# [33] = test system: CCRF-CEM; assay: as above; type: cell-based; settings: Homo sapiens
# [34] = test system: U251; assay: as above; type: cell-based; settings: Homo sapiens
# [35] = test system: NCI-H322M; assay: as above; type: cell-based; settings: Homo sapiens
# [36] = test system: K-562; assay: as above; type: cell-based; settings: Homo sapiens
# [37] = test system: BT-549; assay: as above; type: cell-based; settings: Homo sapiens
# [38] = test system: SK-OV-3; assay: as above; type: cell-based; settings: Homo sapiens
# [39] = test system: SK-MEL-2; assay: as above; type: cell-based; settings: Homo sapiens, SK-MEL-2, read-out: percent growth inhibition
# [40] = test system: OVCAR-5; assay: as above; type: cell-based; settings: Homo sapiens
# [41] = test system: KM12; assay: as above; type: cell-based; settings: Homo sapiens
# [42] = test system: HOP-92; assay: as above; type: cell-based; settings: Homo sapiens
# [43] = read-out: percent growth inhibition
smiles,measurement,setting,value
"O=C(/C=C/c1cccnc1)c1cccc(NCc2ccc(CO)cc2)c1 [Compound 5e, (E)-1–(3-((4-(hydroxymethyl)benzyl)amino)phenyl)-3-(pyridin-3-yl)prop-2-en-1-one]",GI50,[1],13.3 µM
same,inhibition at 10 µM,[1]; [43],41.4%
same,GI50,[2]; NCI-H23,12.9 µM
same,inhibition at 10 µM,"[2]; NCI-H23, read-out: percent growth inhibition",79.3%
same,GI50,[3]; MCF7,2.15 µM
same,inhibition at 10 µM,"[3]; MCF7, read-out: percent growth inhibition",163%
same,GI50,[4]; NCI-H226,11.2 µM
same,inhibition at 10 µM,"[4]; NCI-H226, read-out: percent growth inhibition",123%
same,GI50,[5]; M14,12.4 µM
same,inhibition at 10 µM,"[5]; M14, read-out: percent growth inhibition",91.9%
same,GI50,[6]; NCI-H460,14 µM
same,inhibition at 10 µM,"[6]; NCI-H460, read-out: percent growth inhibition",64.7%
same,GI50,[7],18 µM
same,inhibition at 10 µM,[7]; [43],33.5%
same,GI50,[8]; A498,14.8 µM
same,inhibition at 10 µM,"[8]; A498, read-out: percent growth inhibition",15.3%
same,GI50,[9]; PC-3,11.6 µM
same,inhibition at 10 µM,"[9]; PC-3, read-out: percent growth inhibition",62.6%
same,GI50,[10]; HCT-15,3.01 µM
same,inhibition at 10 µM,"[10]; HCT-15, read-out: percent growth inhibition",132%
same,GI50,[11]; OVCAR-4,11.6 µM
same,inhibition at 10 µM,"[11]; OVCAR-4, read-out: percent growth inhibition",48.8%
same,GI50,[12]; HCC 2998,5.6 µM
same,inhibition at 10 µM,"[12]; HCC 2998, read-out: percent growth inhibition",190%
same,GI50,[13]; HOP-62,15 µM
same,inhibition at 10 µM,"[13]; HOP-62, read-out: percent growth inhibition",20.7%
same,GI50,[14]; read-out: Full panel GI50 mean,9.96 µM
same,GI50,[14]; read-out: Full panel MG-MID GI50,9.96 µM
same,Full panel Mean GI %,"[14]; mean over NCI-60 panel, single dose 10 µM",86.06%
same,GI50,[15]; IGROV-1,3.58 µM
same,inhibition at 10 µM,"[15]; IGROV-1, read-out: percent growth inhibition",86.3%
same,GI50,[16]; COLO 205,16.3 µM
same,inhibition at 10 µM,"[16]; COLO 205, read-out: percent growth inhibition",37.3%
same,GI50,[17]; OVCAR-3,10.3 µM
same,inhibition at 10 µM,"[17]; OVCAR-3, read-out: percent growth inhibition",131%
same,GI50,[18]; SNB-75,9.69 µM
same,inhibition at 10 µM,"[18]; SNB-75, read-out: percent growth inhibition",14.7%
same,GI50,[19]; UACC-62,11.3 µM
same,inhibition at 10 µM,"[19]; UACC-62, read-out: percent growth inhibition",59.8%
same,GI50,[20]; HT-29,8.21 µM
same,inhibition at 10 µM,"[20]; HT-29, read-out: percent growth inhibition",173%
same,GI50,[21],1.76 µM
same,inhibition at 10 µM,[21]; [43],197%
same,GI50,[22]; SK-MEL-28,13.6 µM
same,inhibition at 10 µM,"[22]; SK-MEL-28, read-out: percent growth inhibition",121%
same,GI50,[23],8.07 µM
same,inhibition at 10 µM,[23]; [43],81.6%
same,GI50,[24],9.17 µM
same,inhibition at 10 µM,[24]; [43],59.1%
same,GI50,[25]; SK-MEL-5,12.5 µM
same,inhibition at 10 µM,"[25]; SK-MEL-5, read-out: percent growth inhibition",85.7%
same,GI50,[26],13.7 µM
same,inhibition at 10 µM,[26]; [43],56.8%
same,GI50,[27],11.3 µM
same,inhibition at 10 µM,[27]; [43],104%
same,GI50,[28]; 786-0,15.2 µM
same,inhibition at 10 µM,"[28]; 786-0, read-out: percent growth inhibition",108%
same,GI50,[29]; SF-268,16.9 µM
same,inhibition at 10 µM,"[29]; SF-268, read-out: percent growth inhibition",64.8%
same,GI50,[30]; NCI-H522,11.4 µM
same,inhibition at 10 µM,"[30]; NCI-H522, read-out: percent growth inhibition",57.6%
same,GI50,[31]; TK-10,15 µM
same,inhibition at 10 µM,"[31]; TK-10, read-out: percent growth inhibition",30.6%
same,GI50,"[32]; HCT-116, HCT-116, five-dose screening",1.88 µM
same,inhibition at 10 µM,"[32]; HCT-116, read-out: percent growth inhibition",193%
same,GI50,[33],5.17 µM
same,inhibition at 10 µM,[33]; [43],131%
same,GI50,[34]; U-251,4.94 µM
same,inhibition at 10 µM,"[34]; U-251, read-out: percent growth inhibition",146%
same,GI50,[35],15 µM
same,inhibition at 10 µM,[35]; [43],18.6%
same,GI50,[36]; K562,2.75 µM
same,inhibition at 10 µM,"[36]; K562, read-out: percent growth inhibition",99.1%
same,GI50,[37]; BT-549,6.12 µM
same,inhibition at 10 µM,"[37]; BT-549, read-out: percent growth inhibition",98.1%
same,GI50,[38]; SK-OV-3,15.8 µM
same,inhibition at 10 µM,"[38]; SK-OV-3, read-out: percent growth inhibition",0.04%
same,inhibition at 10 µM,[39],17.7%
same,GI50,[40]; OVCAR-5,14.6 µM
same,inhibition at 10 µM,"[40]; OVCAR-5, read-out: percent growth inhibition",32.6%
same,GI50,[41]; KM12,7.91 µM
same,inhibition at 10 µM,"[41]; KM12, read-out: percent growth inhibition",189%
same,GI50,[42]; HOP-92,12.5 µM
same,inhibition at 10 µM,"[42]; HOP-92, read-out: percent growth inhibition",23.3%
